Columns and labels:
[1] = cited from earlier work
[2] = Dissolution of gacyclidine base pellets in a continuous flow reactor (elution with Ringer's solution containing hydrochloric acid); type: physicochemical; conditions: for pH of the eluted drug solution: room temperature (23±2° C.)
Description: A drug chamber similar to the one illustrated in FIGS. 2 and 4 was loaded with 11 pellets of gacyclidine base having a combined mass of 18 mg. This drug-loaded chamber was eluted at a flow rate of 20 μL/hr at room temperature (23±2° C.) using a MiniMed 508 syringe pump (available from Medtronics MiniMed of Northridge, Calif.). The syringe was loaded with 3 mL of Ringer's solution containing 0.05 to 3 mM hydrochloric acid. The eluted volume was collected in PTFE tubing attached to the pump drug capsule assembly, after a 3-D antibacterial filter. The pH of this solution was determined by use of a pH meter equipped with a Calomel electrode. Drug concentration was determined by HPLC.
The highest pH of the eluted drug solution (5.9) was obtained at 0.05 mM hydrochloric acid, and the lowest pH of the eluted drug solution (5.6) was obtained at 3 mM hydrochloric acid. These pH values indicate quantitative conversion of the hydrochloric acid to the drug salt and are consistent with the pH expected for solutions of the hydrochloride salt.

[3] = body temperature / in the presence of water; cited from earlier work

## CCN(CC)C(=O)SC[C@H](NC(=O)CC[C@H](N)C(=O)O)C(=O)NCC(=O)O [carbamathione]
[1]
  water solubility (in words): sparingly soluble in water

## CC1CCCCC1(c1cccs1)N1CCCCC1 (stereo not shown) [gacyclidine]
[2]; 0.05 to 3 mM HCl in Ringer's solution, 20 μL/hr, linear fit of FIG. 26, drug by HPLC
  correlation in gacyclidine concentration per hydrochloric acid concentration used for elution: 0.976±0.049
[2]; eluted with Ringer's solution containing 0.05 mM hydrochloric acid, 20 μL/hr, highest pH
  pH of the eluted drug solution: 5.9
[2]; eluted with Ringer's solution containing 3 mM hydrochloric acid, 20 μL/hr, lowest pH
  pH of the eluted drug solution: 5.6
[2]; linear fit of FIG. 26, gacyclidine concentration in eluate
  intercept at zero concentration of hydrochloric acid: 0.0014 ± 0.0061 mM
[3]
  stability (in words): much more stable than its acidic form in the presence of water
[1]
  water solubility (in words): sparingly soluble in water

## C[C@H]1CCCC[C@@]1(c1cccs1)N1CCCCC1.Cl [hydrochloride salt of gacyclidine]
[3]
  stability (in words): unstable at body temperature
[1]
  water solubility (in words): highly water soluble

## CC1(C)O[C@@H]2C[C@H]3[C@@H]4CCC5=CC(=O)C=C[C@]5(C)[C@@]4(F)[C@@H](O)C[C@]3(C)[C@]2(C(=O)CO)O1 [triamcinolone acetonide]
[1]
  water solubility (in words): very low water solubility

— patent publication US8298176B2, “Flow-induced delivery from a drug mass” (priority 2006, dated 2012)
